From the supplement of paper PMC10307832

Key:
Test in all cases: relative viability (nuclei count vs DMSO), 5 days (fraction); higher = more cells survive
[1] = compound: COc1cc2nc(N3CCCN(C)CC3)nc(NC3CCN(Cc4ccccc4)CC3)c2cc1OC + C[C@@H](Oc1cc(-c2cnn(C3CCNCC3)c2)cnc1N)c1c(Cl)ccc(F)c1Cl [Crizotinib] (partner 1 µM)
In short: (§1)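 Lung cancer cell lines were pin-tool dosed in 1536-well plates on the day after seeding, with either a lone drug or a fixed anchor-drug dose plus five library-drug doses (not always all listed) in √10 steps. Nuclei were counted on 4× images after 5 days. Relative viability is the ratio of treated-well to vehicle-well nuclei counts, with each value a median of duplicate plates.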

[2] = compound: COc1cc2nc(N3CCCN(C)CC3)nc(NC3CCN(Cc4ccccc4)CC3)c2cc1OC + Nc1ncn([C@H]2C[C@H](O)[C@@H](CO)O2)c(=O)n1 [Decitabine] (partner 2 µM)
In short: as §1

AZD6482 + Vorinostat = compound: Cc1cc([C@@H](C)Nc2ccccc2C(=O)O)c2nc(N3CCOCC3)cc(=O)n2c1 [AZD6482] + O=C(CCCCCCC(=O)Nc1ccccc1)NO [Vorinostat] (partner 1 µM)
In short: as §1

AZD6482 + Tozasertib = compound: Cc1cc([C@@H](C)Nc2ccccc2C(=O)O)c2nc(N3CCOCC3)cc(=O)n2c1 [AZD6482] + Cc1cc(Nc2cc(N3CCN(C)CC3)nc(Sc3ccc(NC(=O)C4CC4)cc3)n2)n[nH]1 [Tozasertib] (partner 0.1 µM)
In short: as §1

Cell Line | relative viability ([1]; first compound 0.2 µM) | relative viability ([1]; first compound 0.6325 µM) | relative viability ([1]; first compound 2 µM) | relative viability ([1]; first compound 6.325 µM) | relative viability ([2]; first compound 0.2 µM) | relative viability ([2]; first compound 0.6325 µM) | relative viability ([2]; first compound 2 µM) | relative viability ([2]; first compound 6.325 µM) | relative viability (AZD6482 + Vorinostat; first compound 0.08 µM) | relative viability (AZD6482 + Vorinostat; first compound 0.253 µM) | relative viability (AZD6482 + Vorinostat; first compound 0.8 µM) | relative viability (AZD6482 + Vorinostat; first compound 2.53 µM) | relative viability (AZD6482 + Vorinostat; first compound 8 µM) | relative viability (AZD6482 + Tozasertib; first compound 0.08 µM) | relative viability (AZD6482 + Tozasertib; first compound 0.253 µM) | relative viability (AZD6482 + Tozasertib; first compound 0.8 µM) | relative viability (AZD6482 + Tozasertib; first compound 2.53 µM) | relative viability (AZD6482 + Tozasertib; first compound 8 µM)
HCC-44 | 0.839 | 0.721 | 0.813 | 0.819 | 1.01 | 0.855 | 0.936 | 0.944 | 1.08 | 1.17 | 1.28 | 1.29 | 1.21 | 0.945 | 0.895 | 0.88 | 0.957 | 0.829
HCC-827 | 0.886 | 0.944 | 0.917 | 0.918 | 0.172 | 0.315 | 0.221 | 0.326 | 0.801 | 0.795 | 0.912 | 0.649 | 0.686 | 0.379 | 0.405 | 0.422 | 0.342 | 0.287
NCI-H1623 | – | – | – | – | – | – | – | – | – | – | – | – | – | 0.384 | 0.382 | 0.397 | 0.419 | 0.371
NCI-H2347 | 0.794 | 0.675 | 0.634 | 0.626 | 0.586 | 0.617 | 0.615 | 0.606 | 0.386 | 0.516 | 0.522 | 0.399 | 0.353 | 0.321 | 0.388 | 0.364 | 0.357 | 0.371
PC-14 | 0.932 | 0.883 | 1.08 | 0.83 | 0.193 | 0.223 | 0.241 | 0.0753 | 0.667 | 0.716 | 0.712 | 0.487 | 0.769 | 0.556 | 0.61 | 0.619 | 0.613 | 0.524
NCI-H1651 | 0.862 | 0.849 | 0.896 | 0.859 | 0.587 | 0.598 | 0.639 | 0.617 | 0.602 | 0.502 | 0.56 | 0.464 | 0.524 | 0.68 | 0.647 | 0.598 | 0.565 | 0.592
HARA | 1.01 | 1.02 | 1.18 | 1.13 | 0.548 | 0.556 | 0.697 | 0.442 | 0.557 | 0.574 | 0.465 | 0.357 | 0.437 | 0.212 | 0.108 | 0.0865 | 0.111 | 0.0791
NCI-H1650 | 1 | 0.903 | 1.2 | 0.892 | 0.403 | 0.399 | 0.377 | 0.353 | 0.512 | 0.629 | 0.805 | 0.437 | 0.632 | 0.36 | 0.378 | 0.303 | 0.336 | 0.393
NCI-H1395 | – | – | – | – | 0.712 | 0.71 | 0.743 | 0.706 | 0.584 | 0.402 | 0.559 | 0.385 | 0.47 | 0.625 | 0.646 | 0.584 | 0.54 | 0.44
LU99A | 0.563 | 0.576 | 0.553 | 0.56 | 0.863 | 0.857 | 0.893 | 0.811 | 0.473 | 0.403 | 0.49 | 0.414 | 0.409 | 0.281 | 0.294 | 0.253 | 0.263 | 0.247
NCI-H1355 | 1.08 | 1.17 | 1.01 | 0.993 | 0.349 | 0.343 | 0.343 | 0.375 | 0.446 | 0.541 | 0.674 | 0.447 | 0.407 | 0.462 | 0.419 | 0.43 | 0.435 | 0.441
HCC-78 | 0.333 | 0.377 | 0.332 | 0.352 | 0.642 | 0.683 | 0.729 | 0.712 | 0.499 | 0.389 | 0.395 | 0.298 | 0.341 | 0.327 | 0.335 | 0.271 | 0.317 | 0.227
NCI-H1563 | 0.829 | 0.853 | 0.809 | 0.794 | – | – | – | – | – | – | – | – | – | – | – | – | – | –
HCC-15 | 0.817 | 0.82 | 0.823 | 0.711 | 0.688 | 0.875 | 0.649 | 0.495 | 0.778 | 0.806 | 0.858 | 0.685 | 0.739 | 0.344 | 0.332 | 0.377 | 0.37 | 0.293
EKVX | 1.08 | 0.887 | 1.05 | 0.9 | 0.329 | 0.318 | 0.343 | 0.27 | 0.537 | 0.662 | 0.578 | 0.485 | 0.361 | 0.337 | 0.296 | 0.344 | 0.362 | 0.202
NCI-H2087 | 0.929 | 0.646 | 0.777 | 0.716 | 0.318 | 0.261 | 0.219 | 0.212 | 0.465 | 0.81 | 0.98 | 0.183 | 0.92 | 0.282 | 0.268 | 0.221 | – | 0.205
LK-2 | 0.233 | 0.237 | 0.235 | 0.284 | 0.276 | 0.244 | 0.359 | 0.326 | 0.374 | 0.276 | 0.298 | 0.384 | 0.258 | 0.142 | 0.162 | 0.15 | 0.182 | 0.168
NCI-H1437 | 0.901 | 0.866 | 1.02 | 0.879 | 0.61 | 0.522 | 0.584 | 0.577 | 0.955 | 0.921 | 0.997 | 0.738 | 0.468 | 0.393 | 0.408 | 0.301 | 0.325 | 0.254
COR-L23 | 0.471 | 0.562 | 0.711 | 0.673 | 0.466 | 0.477 | 0.527 | 0.471 | 0.269 | 0.512 | 0.505 | 0.28 | 0.442 | 0.183 | 0.192 | 0.162 | 0.153 | 0.171
